From US20180133248A1, “T[…] AGENT AND TREATMENT” (priority 2014, published 2018)

Test system: normal bank blood
Assay: In vitro pO2 and hemoglobin saturation of bank blood after oxygen or ozone/oxygen treatment
Conditions: 5 minutes after gas administration
Protocol: Ozone/oxygen was obtained from a pure (medical grade) oxygen by means of a medical ozone generator (Ozomed, a device manufactured in N.C.S.R., Havana, Cuba), at a concentration of 50 mg ozone/L oxygen (ca. 3.7%).
The ability of ozone/oxygen to in vitro raise pO2 of normal bank blood was compared to that of pure medical oxygen. To each one often paired (5+5) blood samples (5 mL each) contained in closed 10 ml vials, 2.5 mL of pure oxygen or ozone/oxygen mixture respectively were carefully bubbled through. Gasometric analyses were performed in test samples 5 minutes after gas administration and also in control untreated samples.

## O=O [O2, oxygen]
5 mL blood, 2.5 mL gas bubbled through, n = 5, control 41 ± 1
  PO2: 73 ± 2
N = 5
  PO2 rise (%) (above control): 78%
N = 5, control 60 ± 1
  HB saturation: 86 ± 2
